Results reported in PMC3235725 (Biochemistry, 2011).
Read-outs that look alike come from different tables or passages of the source.

How the values were obtained:
[1] = molecular target: BM-3(wt), wild-type P450BM-3 (Priestia megaterium, UniProt P14779); test: Steady-state turnover, products quantified by GC-MS, wild-type holoenzyme; type: biochemical, Bacillus megaterium; details: 50 nM enzyme, 250 μM substrate, 50 mM KPi pH 7.4, 25°C
[2] = molecular target: BMP(A328V), heme domain of P450BM-3 A328V mutant (Priestia megaterium, UniProt P14779, A329V); test: Substrate dissociation constants by UV-vis spectral titration, A328V heme domain; type: binding, Bacillus megaterium; details: for Fold Enhancement of substrate affinity, A328V versus wild type: ratio of BMP(wt) KD to BMP(A328V) KD
[3] = molecular target: BM-3(A328V), P450BM-3(A328V) (Priestia megaterium, UniProt P14779, A329V); test: Steady-state turnover, products quantified by GC-MS, A328V holoenzyme; type: biochemical, Bacillus megaterium; details: 50 nM enzyme, 250 μM substrate; for BM-3(A328V) turnover rate: 50 mM KPi pH 7.4, 25°C, GC-MS
[4] = molecular target: P450BM-3(A328V) (Priestia megaterium, UniProt P14779, A329V); test: Regiospecificity of hydroxylation, product distribution by GC/MS, A328V; type: biochemical, Bacillus megaterium; details: A328V mutant, 500 μM substrate, 50 nM enzyme, 250 μM NADPH, run to completion
[5] = molecular target: P450BM-3 wild-type (Priestia megaterium, UniProt P14779); test: Regiospecificity of hydroxylation, product distribution by GC/MS, wild type; type: biochemical, Bacillus megaterium; details: wild-type enzyme, 500 μM substrate, 50 nM enzyme, 250 μM NADPH, run to completion
[6] = molecular target: BMP(wt), heme domain of P450BM-3 (Priestia megaterium, UniProt P14779); type: binding, Bacillus megaterium
[7] = system: BM-3(A328V); details: 2% (v/v) DMSO, 200 μM substrate, 500 nM enzyme; cited from earlier work
[8] = system: BM-3(wt); details: 2% (v/v) DMSO, 200 μM substrate, 500 nM enzyme; cited from earlier work
[9] = read-out: BMP(A328V) Dissociation Constant, 50 mM KPi pH 7.4, room temperature, 1 μM P450, UV-vis titration

Sequence of BM-3(A328V), P450BM-3(A328V) (P14779 whole entry A329V): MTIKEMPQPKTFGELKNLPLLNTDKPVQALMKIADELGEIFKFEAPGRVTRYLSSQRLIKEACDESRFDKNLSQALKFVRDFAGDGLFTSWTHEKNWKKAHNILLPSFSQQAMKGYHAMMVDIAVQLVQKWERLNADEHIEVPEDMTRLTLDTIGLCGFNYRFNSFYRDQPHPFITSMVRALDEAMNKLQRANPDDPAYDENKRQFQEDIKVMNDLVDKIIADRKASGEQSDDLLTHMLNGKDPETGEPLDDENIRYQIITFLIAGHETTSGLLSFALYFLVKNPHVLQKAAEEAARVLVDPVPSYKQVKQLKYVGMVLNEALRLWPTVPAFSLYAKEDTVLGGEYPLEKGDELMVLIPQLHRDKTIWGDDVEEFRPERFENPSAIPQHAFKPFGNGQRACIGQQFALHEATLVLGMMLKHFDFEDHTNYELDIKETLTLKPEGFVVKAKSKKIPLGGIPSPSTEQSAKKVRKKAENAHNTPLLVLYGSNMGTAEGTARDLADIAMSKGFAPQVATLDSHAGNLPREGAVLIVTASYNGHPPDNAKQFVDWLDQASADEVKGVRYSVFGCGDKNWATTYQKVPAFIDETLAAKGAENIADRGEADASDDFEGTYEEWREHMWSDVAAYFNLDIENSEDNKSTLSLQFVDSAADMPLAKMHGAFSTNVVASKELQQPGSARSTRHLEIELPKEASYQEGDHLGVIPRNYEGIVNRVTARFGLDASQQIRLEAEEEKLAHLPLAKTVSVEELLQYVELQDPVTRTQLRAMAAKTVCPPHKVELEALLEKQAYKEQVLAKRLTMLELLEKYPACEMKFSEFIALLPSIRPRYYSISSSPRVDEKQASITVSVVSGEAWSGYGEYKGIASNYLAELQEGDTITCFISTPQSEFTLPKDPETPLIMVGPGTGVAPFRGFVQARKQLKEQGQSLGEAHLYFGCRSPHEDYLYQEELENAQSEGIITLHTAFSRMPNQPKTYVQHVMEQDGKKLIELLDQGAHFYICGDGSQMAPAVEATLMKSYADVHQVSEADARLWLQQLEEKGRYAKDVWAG
Sequence of BM-3(wt), wild-type P450BM-3 (P14779 whole entry, the tested form may be a part): as the sequence (P14779 whole entry A329V) above, with V329A counted along it
Sequence of BMP(A328V), heme domain of P450BM-3 A328V mutant (P14779 2-472 A329V): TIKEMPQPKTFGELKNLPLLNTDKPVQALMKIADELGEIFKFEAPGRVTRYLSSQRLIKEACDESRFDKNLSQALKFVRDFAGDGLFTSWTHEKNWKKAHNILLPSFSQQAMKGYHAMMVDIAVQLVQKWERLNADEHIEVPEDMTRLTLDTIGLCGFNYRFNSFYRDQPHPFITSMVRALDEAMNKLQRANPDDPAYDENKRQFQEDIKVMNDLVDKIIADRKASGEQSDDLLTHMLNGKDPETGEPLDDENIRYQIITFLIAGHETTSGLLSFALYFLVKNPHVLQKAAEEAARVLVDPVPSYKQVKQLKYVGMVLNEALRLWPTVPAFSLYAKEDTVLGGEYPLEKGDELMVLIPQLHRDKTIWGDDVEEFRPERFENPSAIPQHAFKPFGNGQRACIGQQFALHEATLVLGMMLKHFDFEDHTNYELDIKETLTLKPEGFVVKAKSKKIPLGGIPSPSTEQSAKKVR
Sequence of BMP(wt), heme domain of P450BM-3 (P14779 2-472): as the sequence (P14779 2-472 A329V) above, with V328A counted along it
Sequence of P450BM-3(A328V) (P14779 whole entry A329V): as the sequence (P14779 whole entry A329V) above
Sequence of P450BM-3 wild-type (P14779 whole entry, the tested form may be a part): as the sequence (P14779 whole entry A329V) above, with V329A counted along it

Structure (SMILES) | BM-3(wt) turnover rate [1] [μmol/min/μmol] | Fold Enhancement of substrate affinity, A328V versus wild type [2] | Kd [2, 9] [nM] | Fold Enhancement of turnover (rate A328V divided by rate wild type) [3] | BM-3(A328V) turnover rate [3] [μmol/min/μmol] | ω-1 hydroxy product, percent of total oxidation products [4] [%] | Kd [2] [nM] | ω-2 hydroxy product, percent of total oxidation products [5] [%] | Kd [6] [nM] | BM-3(A328V) turnover rate [7] [μmol/min/μmol] | BM-3(wt) turnover rate [8] [μmol/min/μmol]
CCCCCCCCCCCCCCCC(=O)N[C@@H](CCC(N)=O)C(=O)O [PalmGln, N-palmitoyl-L-glutamine] | 610 ± 25 | 2.7 | 74 ± 5 | 7.4 | 4500 ± 500 | – | – | – | – | – | –
CCCCCCCCCCCCCCCC(=O)N[C@@H](CCSC)C(=O)O [PalmMet, N-palmitoyl-L-methionine] | 1690 ± 75 | – | < 30 | 2.6 | 4400 ± 145 | – | – | – | – | – | –
CCCCCCCCCCCCCCCC(=O)N[C@@H](CC(C)C)C(=O)O [PalmLeu] | 1155 ± 20 | – | < 30 | 3.4 | 3900 ± 320 | – | – | – | – | – | –
CCCCCCCCCCCCCCCC(=O)NCC(=O)O [PalmGly, N-palmitoylglycine] | 1875 ± 30 | 7.1 | 45 ± 14 | 2.9 | 5500 ± 600 | – | – | – | – | – | –
CCCCCCCCCCCCCCCC(=O)N[C@@H](CCC(=O)O)C(=O)O [PalmGlu, N-palmitoyl-L-glutamate] | 485 ± 15 | 9.0 | 410 ± 60 | 8.2 | 3960 ± 280 | – | – | – | – | – | –
CCCCCCCCCCCCCCCC(=O)O [Palmitate, palmitic acid] | 1480 ± 35 | 8.1 | – | 2.3 | 3355 ± 95 | 72 | 160 ± 20 | 46 | 1300 ± 170 | – | –
CC(=O)CC/C=C(/C)CCC=C(C)C [Nerylacetone] | – | – | – | – | – | – | – | – | – | 338 ± 10 | 155 ± 7
